Measurements from US5281628A, “9-amino-7-(substituted)-6-demethyl-6-deoxytetracyclines” (American Cyanamid Company, priority 1991, dated 1994).
Structures can show the parent of a compound that is named as a salt. Where two headings read alike, the source gives them in different places.

Experiments:
[1] = test system: tetracycline sensitive and resistant Gram-positive and Gram-negative bacteria; assay: In vitro antibacterial evaluation, statements on the whole panel; format: cell-based
Experimental: (§1) The minimum inhibitory concentration (MIC), the lowest concentration of the antibiotic which inhibits growth of the test organism, is determined by the microtiter broth dilution method using 0.1 ml Muller-Hinton II broth (Baltimore Biological Laboratories) per well. A suitable oxygen scavenger (i.e., cysteine or dithiothreitol) is added to the assay medium for the testing of compounds according to Formula I because of the sensitivity of those compounds to oxidation. An inoculum level of 1-5×10^5 CFU/ml and a range of antibiotic concentrations (32 0.004 μg/ml) are used.

[2] = test system: E. coli S30 Ribosomes, Wild Type (tetracycline sensitive); assay: In vitro protein translation with E. coli S30 ribosomes, wild type; format: biochemical; settings: for inhibition of protein synthesis on wild type ribosomes (in words): coupled transcription and translation system
Experimental: The E. coli in vitro translation system can be used to study not only the mechanism of protein translation itself, but also the effect that various compounds may have on protein synthesis. The system can be set up to function as a coupled transcription and translation system or as a translation only system depending on whether DNA or RNA is added to initiate protein synthesis. In this way, compounds affecting either RNA synthesis and/or protein synthesis can be studied. Protein synthesis is monitored by the incorporation of radiolabeled amino acids into trichloroacetic acid precipitable material. The system used is based upon literature methods [G. Zubay, Ann. Rev. Genet., 7: 267-287(1973) and J. Collins, Gene, 6: 28-42 (1979)].
The system used to study tetracycline protein synthesis inhibition is as follows:
An S30 extract (supernatant from a 30,000×G centrifugation of lysed cells) of either tetracycline sensitive or tetracycline resistant (tetM+) cells is combined with a mixture of low molecular weight compounds required for protein synthesis which include a mixture of 19 amino acids, methionine, ^35 S-methionine, plasmid template DNA and either dimethylsulfoxide (DMSO) or the tetracycline to be tested dissolved and diluted in DMSO. This mixture is incubated at 37° C. for 30 minutes. Following the incubation, 2.5 μl of the 10 μl reaction is removed and added to 0.5 ml of 1N sodium hydroxide. The solution is incubated an additional 15 minutes at 37° C., to destroy any m-RNA and t-RNA. The incorporation of ^35 S-methionine is determined by precipitating the high molecular weight material in the sodium hydroxide aliquot with trichloroacetic acid (TCA), collecting the precipitated material on Whatman G/FC filters, drying the filters and counting the radioactivity retained on the filter. Percent inhibition (P.I.) of protein synthesis is determined by the following equation: [formula]

[3] = test system: S. aureus IVES 1983 (methicillin-resistant); assay: MIC, microtiter broth dilution; format: cell-based; settings: Staphylococcus aureus, 18 h
Experimental: as §1

[4] = test system: E. faecalis 12201 (vancomycin-resistant); assay: MIC, microtiter broth dilution; format: cell-based; settings: Enterococcus faecalis, 18 h
Experimental: as §1

[5] = test system: S. aureus IVES 2943 (methicillin-resistant); assay: MIC, microtiter broth dilution; format: cell-based; settings: Staphylococcus aureus, 18 h
Experimental: as §1

[6] = test system: S. haemolyticus AVAH 88-3; assay: MIC, microtiter broth dilution; format: cell-based; settings: Staphylococcus haemolyticus, AVAH883, 18 h
Experimental: as §1

S. aureus ATCC 29213 = assay: MIC, microtiter broth dilution; format: cell-based; settings: Staphylococcus aureus, ATCC29213, 18 h
Experimental: as §1

E. faecalis CI 2735 = assay: MIC, microtiter broth dilution; format: cell-based; settings: Enterococcus faecalis, CI2735, 18 h
Experimental: as §1

[7] = test system: S. aureus CI 3300 (methicillin-resistant); assay: MIC, microtiter broth dilution; format: cell-based; settings: Staphylococcus aureus, 18 h
Experimental: as §1

E. coli ATCC 25922 = assay: MIC, microtiter broth dilution; format: cell-based; settings: Escherichia coli, ATCC25922, 18 h
Experimental: as §1

[8] = test system: S. aureus CI 2371 (methicillin-resistant); assay: MIC, microtiter broth dilution; format: cell-based; settings: Staphylococcus aureus, 18 h
Experimental: as §1

[9] = test system: S. aureus UBMS 88-4 (tetracycline-sensitive); assay: MIC, microtiter broth dilution; format: cell-based; settings: Staphylococcus aureus, 18 h
Experimental: as §1

S. marcescens FPOR 87-33 = assay: MIC, microtiter broth dilution; format: cell-based; settings: Serratia marcescens, FPOR8733, 18 h
Experimental: as §1

[10] = test system: S. aureus UBMS 90-3 (tetracycline-sensitive); assay: MIC, microtiter broth dilution; format: cell-based; settings: Staphylococcus aureus, 18 h
Experimental: as §1

P. aeruginosa ATCC 27853 = assay: MIC, microtiter broth dilution; format: cell-based; settings: Pseudomonas aeruginosa, ATCC27853, 18 h
Experimental: as §1

[11] = test system: Coagulase negative staphylococci CI 535; assay: MIC, microtiter broth dilution; format: cell-based; settings: 18 h
Experimental: as §1

[12] = test system: E. coli UBMS 90-5 (tetracycline-sensitive); assay: MIC, microtiter broth dilution; format: cell-based; settings: Escherichia coli, 18 h
Experimental: as §1

[13] = test system: Coagulase negative staphylococci CI 664; assay: MIC, microtiter broth dilution; format: cell-based; settings: 18 h
Experimental: as §1

E. faecalis ATCC 29212 = assay: MIC, microtiter broth dilution; format: cell-based; settings: Enterococcus faecalis, ATCC29212, 18 h
Experimental: as §1

[14] = Wild Type S30 no DTT, 1.0 mg/ml
[15] = Wild Type S30 no DTT, 1:2 Dilution
[16] = Wild Type S30 no DTT, 1:4 Dilution
[17] = Wild Type S30 no DTT, 1:8 Dilution
[18] = Wild Type S30 no DTT, 1:16 Dilution
[19] = Wild Type S30 no DTT, 1:32 Dilution
[20] = Wild Type S30 no DTT, 1:64 Dilution
[21] = Wild Type S30 with DTT, 1.0 mg/ml
[22] = Wild Type S30 with DTT, 1:2 Dilution
[23] = Wild Type S30 with DTT, 1:4 Dilution
[24] = Wild Type S30 with DTT, 1:8 Dilution
[25] = Wild Type S30 with DTT, 1:16 Dilution
[26] = Wild Type S30 with DTT, 1:32 Dilution
[27] = Wild Type S30 with DTT, 1:64 Dilution
[28] = in the presence of cysteine (0.05%)

Structure (SMILES): CN(C)c1cc(N)c(O)c2c1C[C@H]1C[C@H]3[C@H](N(C)C)C(O)=C(C(N)=O)C(=O)[C@@]3(O)C(O)=C1C2=O [A, 9-Amino-7-(dimethylamino)-6-demethyl-6-deoxytetracycline hydrochloride]
- in vitro activity against tetracycline resistant strains carrying the tetM resistance determinant ([1]; S. aureus UBMS 88-5, 90-1 and 90-2, E. coli UBMS 89-1 and 90-4): good in vitro activity
- effectiveness vs. susceptible strains compared with B ([1]; susceptible strains, comparator B): equally as effective
- % Inhibition [2, 14]: 88%
- Counts [2, 14]: 52595
- % Inhibition [2, 15]: 82%
- Counts [2, 15]: 80494
- % Inhibition [2, 16]: 79%
- Counts [2, 16]: 95015
- % Inhibition [2, 17]: 72%
- Counts [2, 17]: 130209
- % Inhibition [2, 18]: 55%
- Counts [2, 18]: 205392
- % Inhibition [2, 19]: 35%
- Counts [2, 19]: 297786
- % Inhibition [2, 20]: 46%
- Counts [2, 20]: 245494
- % Inhibition [2, 21]: 96%
- Counts [2, 21]: 38121
- % Inhibition [2, 22]: 93%
- Counts [2, 22]: 60891
- % Inhibition [2, 23]: 89%
- Counts [2, 23]: 92203
- % Inhibition [2, 24]: 84%
- Counts [2, 24]: 143215
- % Inhibition [2, 25]: 75%
- Counts [2, 25]: 214831
- % Inhibition [2, 26]: 73%
- Counts [2, 26]: 238321
- % Inhibition [2, 27]: 56%
- Counts [2, 27]: 380103
- inhibition of protein synthesis on wild type ribosomes (in words) [2]: effectively inhibit protein synthesis
- MIC [3, 28]: 0.5 µg/mL
- MIC [4, 28]: 0.5 µg/mL
- MIC [5, 28]: 0.5 µg/mL
- MIC ([6]; S. haemolyticus AVAH 88-3, in the presence of cysteine (0.05%), read-out: MIC): 0.06 µg/mL
- MIC (S. aureus ATCC 29213; [28]): 0.008 µg/mL
- MIC (E. faecalis CI 2735; [28]): 0.5 µg/mL
- MIC [7, 28]: 0.25 µg/mL
- MIC (E. coli ATCC 25922; [28]): 0.25 µg/mL
- MIC [8, 28]: 0.5 µg/mL
- MIC [9, 28]: 0.015 µg/mL
- MIC (S. marcescens FPOR 87-33; [28]): 4 µg/mL
- MIC [10, 28]: 0.015 µg/mL
- MIC (P. aeruginosa ATCC 27853; [28]): 2 µg/mL
- MIC [11, 28]: 1 µg/mL
- MIC [12, 28]: 0.25 µg/mL
- MIC [13, 28]: 0.003 µg/mL
- MIC (E. faecalis ATCC 29212; [28]): 0.06 µg/mL

Structure (SMILES): CN(C)c1ccc(O)c2c1C[C@H]1C[C@H]3[C@H](N(C)C)C(O)=C(C(N)=O)C(=O)[C@@]3(O)C(O)=C1C2=O [B, 7-(Dimethylamino)-6-demethyl-6-deoxytetracycline hydrochloride]
- Antibacterial potency in the presence of cysteine ([1]; in the presence of cysteine versus without): not enhanced
- % Inhibition [2, 14]: 87%
- Counts [2, 14]: 57696
- % Inhibition [2, 15]: 83%
- Counts [2, 15]: 76804
- % Inhibition [2, 16]: 88%
- Counts [2, 16]: 53400
- % Inhibition [2, 17]: 64%
- Counts [2, 17]: 162405
- % Inhibition [2, 18]: 53%
- Counts [2, 18]: 213077
- % Inhibition [2, 19]: 33%
- Counts [2, 19]: 306650
- % Inhibition [2, 20]: 0%
- Counts [2, 20]: 457601
- % Inhibition [2, 21]: 93%
- Counts [2, 21]: 58885
- % Inhibition [2, 22]: 91%
- Counts [2, 22]: 78961
- % Inhibition [2, 23]: 87%
- Counts [2, 23]: 111971
- % Inhibition [2, 24]: 83%
- Counts [2, 24]: 149792
- % Inhibition [2, 25]: 76%
- Counts [2, 25]: 207484
- % Inhibition [2, 26]: 67%
- Counts [2, 26]: 289304
- % Inhibition [2, 27]: 41%
- Counts [2, 27]: 518601
- inhibition of protein synthesis on wild type ribosomes (in words) [2]: effectively inhibit protein synthesis
- MIC ([3]; no cysteine stated): 1 µg/mL
- MIC ([4]; no cysteine stated): 4 µg/mL
- MIC ([5]; no cysteine stated): 1 µg/mL
- MIC [6]: 0.12 µg/mL
- MIC (S. aureus ATCC 29213; no cysteine stated): ≤ 0.004 µg/mL
- MIC (E. faecalis CI 2735; no cysteine stated): 4 µg/mL
- MIC ([7]; no cysteine stated): 8 µg/mL
- MIC (E. coli ATCC 25922; no cysteine stated): 0.25 µg/mL
- MIC ([8]; no cysteine stated): 4 µg/mL
- MIC ([9]; no cysteine stated): 0.008 µg/mL
- MIC (S. marcescens FPOR 87-33; no cysteine stated): 2 µg/mL
- MIC ([10]; no cysteine stated): 0.015 µg/mL
- MIC (P. aeruginosa ATCC 27853; no cysteine stated): 4 µg/mL
- MIC ([11]; no cysteine stated): 8 µg/mL
- MIC ([12]; no cysteine stated): 0.5 µg/mL
- MIC ([13]; no cysteine stated): 0.015 µg/mL
- MIC (E. faecalis ATCC 29212; no cysteine stated): 0.25 µg/mL
